Series [1] has as its system patient derived Basal Cell Carcinoma (BCC). Type of series: cell-based, human. The following applies: 20 μM, 4 days, vs DMSO; p<0.002. From the text:
Tumour material was harvested from an infiltrative basal cell carcinoma (BCC) from a patient's nose.

For series [2] the test system is unchanged. In kind it is cell-based, human. As to conditions: 20 μM, 4 days, vs DMSO.
Series [3] has as its system cutaneous squamous cell carcinoma cell line SCC12. The series can be described thus: In vitro anti-proliferative assay (resazurin) in SCC12. Type of series: cell-based. As to conditions: SCC12, 72 hours. From the text: Methodology. The cutaneous squamous cell carcinoma cell culture SCC12 was cultivated in keratinocyte-SFM media (KSFM, Cat #17005042, Gibco) supplemented with human recombinant epidermal growth factor 1-53 (EGF 1-53) and bovine pituitary extract (BFE).
Vehicle treated wells were set to 100% viability.

Series [4] relates to B16F10 xenografts in C57BL/6 mice. The series can be described thus: In vivo efficacy test, dermal treatment of intradermal B16-F10 tumours (tumour volume). Also noted: species or system mouse. The following applies: 20 μl of 0.2% leucinostatin A dermally, treatment not continued longer than 7 days, observed to day 16. The protocol:
(§1) In vivo efficacy test methodology. C57Bl/6 mice (Janvier Labs); females; 6-8 weeks old at beginning of the treatment. The tumour was induced through intradermal inoculation of 1×10^5 cells per mouse intradermally in the skin of the neck. A total of 24 mice were used (n=8 for vehicle, n=8 for 5% 6027, n=8 for leucinostatin A 0.2%). Test item was applied starting on day 1 after inoculation of the tumour cells. The test items of 20 μl of 5% 6027 and of 0.2% Leucinostatin A were applied dermally with a pipette once a day every day for up to 21 days to the intact skin area of about 1 cm^2 on the site were the B16-F10 cells had been injected. If ulceration occurred then the animal was removed from the test and sacrificed.
The read out was tumour volume measured three times a week expressed as tumour volume (in cm^3). Additionally, tumour samples were taken for histological analysis (Tumour FFPE) (2 mice per group).

The nature of series [5]: Dermal tolerability in the in vivo efficacy test. Also noted: species or system mouse. On the procedure: as §1

Structures are written as SMILES. “Also recorded” adds a separate entry of the source. Read-outs that look alike come from different tables or passages of the source. Numbered stars: 1 amine (or outer) side, 2 acyl side, 3 side chain; on linkers, the order of the positions; unused ones are H or OH. Square brackets hold non-standard residues; d marks the D form. Peptide text beside a SMILES is read from it. * marks the point of attachment. X1 = CCC(=O)C[C@H](O)C[C@@H](C)C[C@H](N[*:1])C(=O)[*:2]; X2 = COc1ccc2nc(C[C@H](N[*:1])C(=O)[*:2])sc2c1; X5 = O=C([C@H](Cc1nc2ccc(F)cc2s1)N[*:1])[*:2]; Hexenoyl(2E,4S-Me) = CC[C@H](C)/C=C/C(=O)*; X7 = O=C([C@H](Cc1nc2ccccc2o1)N[*:1])[*:2]; Leu(3R-OH) = CC(C)[C@@H](O)[C@H](N)C(=O)O; NH((S)CH(Me)CH2NMe2) = C[C@@H](CN(C)C)N*; NH(2-morpholinoethyl) = C(CN1CCOCC1)N*; Pro(4S-Me) = C[C@@H]1CN[C@H](C(=O)O)C1; NH(1-CH2NMe2-cBu) = CN(C)CC1(N*)CCC1; Oxazole4CO(2-Me) = Cc1nc(C(=O)*)co1; β3hAib = CC(C)(CC(=O)[*:2])N[*:1]; Benzoyl(4-F) = O=C(c1ccc(F)cc1)*; hCha = N[C@@H](CCC1CCCCC1)C(=O)O; Nle = CCCC[C@H](N)C(=O)O; Aib = CC(C)(N)C(=O)O; βAla = NCCC(=O)O

With `CS(=O)(=O)c1ccc(C(=O)Nc2ccc(Cl)c(-c3ccccn3)c2)c(Cl)c1` [Vismodegib, reference compound], in series [1], the “cell proliferation (Ki67)” value is on record as “significantly reduced”. Further, in series [2], the “apoptotic cells (TUNEL positive cells)” value is given as “Significant increase” and the “cell proliferation (Ki67)” value is recorded as “significantly reduced”.

With `CC(C)C[C@H](NC(=O)[C@H](CCC1CCCCC1)NC(=O)[C@@H]1CCCN1C(=O)c1ccc(F)cc1)C(=O)NC(C)(C)C(=O)N[C@@H](CC(C)C)C(=O)N[C@@H](CC(C)C)C(=O)NC(C)(C)C(=O)NC(C)(C)C(=O)NCCC(=O)NCCN1CCOCC1` [Compound 8341, (2S)-2-[(2S)-4-cyclohexyl-2-{[(2S)-1-(4-fluorobenzoyl)pyrrolidin-2-yl]formamido}butanamido]-4-methyl-N-(1-methyl-1-{[(1S)-3-methyl-1-{[(1S)-3-methyl-1-{[1-methyl-1-({1-methyl-1-[(2-{[2-(morpholin-4-yl)ethyl]carbamoyl}ethyl)carbamoyl]ethyl}carbamoyl)ethyl]carbamoyl}butyl]carbamoyl}butyl]carbamoyl}ethyl)pentanamide] ({Benzoyl(4-F)}-P[hCha]L[Aib]LL[Aib][Aib][βAla]-{NH(2-morpholinoethyl)}), in series [3], the IC50 stood at 1020 nM.

Regarding `CC(C)C[C@H](NC(=O)[C@H](Cc1nc2ccccc2o1)NC(=O)[C@@H]1CCCN1C(=O)c1ccc(F)cc1)C(=O)NC(C)(C)C(=O)N[C@@H](CC(C)C)C(=O)N[C@@H](CC(C)C)C(=O)NC(C)(C)C(=O)NC(C)(C)C(=O)NCCC(=O)NC1(CN(C)C)CCC1` [Compound 7850, (2S)-2-[(2S)-3-(1,3-benzoxazol-2-yl)-2-{[(2S)-1-(4-fluorobenzoyl)pyrrolidin-2-yl]formamido}propanamido]-N-(1-{[(1S)-1-{[(1S)-1-({1-[(1-{[2-({1-[(dimethylamino)methyl]cyclobutyl}carbamoyl)ethyl]carbamoyl}-1-methylethyl)carbamoyl]-1-methylethyl}carbamoyl)-3-methylbutyl]carbamoyl}-3-methylbutyl]carbamoyl}-1-methylethyl)-4-methylpentanamide] ({Benzoyl(4-F)}-P[X7]L[Aib]LL[Aib][Aib][βAla]-{NH(1-CH2NMe2-cBu)}), in series [3], inhibition was half-maximal at 1040 nM (IC50).

Take `CCC(=O)C[C@H](O)C[C@@H](C)C[C@H](NC(=O)[C@@H]1C[C@H](C)CN1C(=O)/C=C/[C@@H](C)CC)C(=O)N[C@H](C(=O)NC(C)(C)C(=O)N[C@@H](CC(C)C)C(=O)N[C@@H](CC(C)C)C(=O)NC(C)(C)C(=O)NC(C)(C)C(=O)NCCC(=O)N[C@@H](C)CN(C)C)[C@H](O)C(C)C` [leucinostatin A, reference compound] ({Hexenoyl(2E,4S-Me)}-[Pro(4S-Me)][X1][Leu(3R-OH)][Aib]LL[Aib][Aib][βAla]-{NH((S)CH(Me)CH2NMe2)}; N-terminus and C-terminus assumed): the “reduction of tumour volume” value in series [4] is on record as “no significant reduction of tumour volume”. Further, in series [5] (0.2% leucinostatin A (lowest test concentration)), the skin irritation entry is given as “strong skin irritation with destruction of the epidermis; also recorded: strong skin irritating effect”. The “tolerability of dermal treatment” value in series [5] (0.2% leucinostatin A once a day) was “not tolerated”.

`CC(C)C[C@H](NC(=O)[C@H](CCC1CCCCC1)NC(=O)[C@@H]1CCCN1C(=O)c1ccc(F)cc1)C(=O)NC(C)(C)C(=O)N[C@@H](CC(C)C)C(=O)N[C@@H](CC(C)C)C(=O)NC(C)(C)C(=O)NC(C)(C)CC(=O)NCCC(=O)NC1(CN(C)C)CCC1` [Compound 21365, (2S)-2-[(2S)-4-cyclohexyl-2-{[(2S)-1-(4-fluorobenzoyl)pyrrolidin-2-yl]formamido}butan-amido]-N-(1-{[(1S)-1-{[(1S)-1-({1-[(1-{[2-({1-[(dimethylamino)methyl]cyclobutyl}carbamoyl)ethyl]carbamoyl}-2-methylpropan-2-yl)carbamoyl]-1-methylethyl}carbamoyl)-3-methylbutyl]carbamoyl}-3-methylbutyl]carbamoyl}-1-methylethyl)-4-methylpentanamide] ({Benzoyl(4-F)}-P[hCha]L[Aib]LL[Aib][β3hAib][βAla]-{NH(1-CH2NMe2-cBu)}) yielded an IC50 in series [3] of 511 nM.

For the compound `CC(C)C[C@H](NC(=O)[C@H](Cc1nc2ccc(F)cc2s1)NC(=O)[C@@H]1CCCN1C(=O)c1ccc(F)cc1)C(=O)NC(C)(C)C(=O)N[C@@H](CC(C)C)C(=O)N[C@@H](CC(C)C)C(=O)NC(C)(C)C(=O)NC(C)(C)C(=O)NCCC(=O)NC1(CN(C)C)CCC1` [Compound 7848, (2S)—N-(1-{[(1S)-1-{[(1S)-1-({1-[(1-{[2-({1-[(dimethylamino)methyl]cyclobutyl}carbamoyl)ethyl]carbamoyl}-1-methylethyl)carbamoyl]-1-methylethyl}carbamoyl)-3-methylbutyl]carbamoyl}-3-methylbutyl]carbamoyl}-1-methylethyl)-2-[(2S)-3-(6-fluoro-1,3-benzothiazol-2-yl)-2-{[(2S)-1-(4-fluorobenzoyl)pyrrolidin-2-yl]formamido}propanamido]-4-methylpentanamide] ({Benzoyl(4-F)}-P[X5]L[Aib]LL[Aib][Aib][βAla]-{NH(1-CH2NMe2-cBu)}), in series [3], the IC50 stood at 182 nM.

In the case of `COc1ccc2nc(C[C@H](NC(=O)[C@@H]3CCCN3C(=O)c3ccc(F)cc3)C(=O)N[C@@H](CC(C)C)C(=O)NC(C)(C)C(=O)N[C@@H](CC(C)C)C(=O)N[C@@H](CC(C)C)C(=O)NC(C)(C)C(=O)NC(C)(C)C(=O)NCCC(=O)NC3(CN(C)C)CCC3)sc2c1` [Compound 7844, (2S)—N-(1-{[(1S)-1-{[(1S)-1-({1-[(1-{[2-({1-[(dimethylamino)methyl]cyclobutyl}carbamoyl)ethyl]carbamoyl}-1-methylethyl)carbamoyl]-1-methylethyl}carbamoyl)-3-methylbutyl]carbamoyl}-3-methylbutyl]carbamoyl}-1-methylethyl)-2-[(2S)-2-{[(2S)-1-(4-fluorobenzoyl)pyrrolidin-2-yl]formamido}-3-(6-methoxy-1,3-benzothiazol-2-yl)propanamido]-4-methylpentanamide] ({Benzoyl(4-F)}-P[X2]L[Aib]LL[Aib][Aib][βAla]-{NH(1-CH2NMe2-cBu)}), 546 nM corresponded to half-maximal inhibition in series [3] (IC50).

In the case of `CCCC[C@H](NC(=O)[C@@H]1CCCN1C(=O)c1coc(C)n1)C(=O)N[C@@H](CC(C)C)C(=O)NC(C)(C)C(=O)N[C@@H](CC(C)C)C(=O)N[C@@H](CC(C)C)C(=O)NC(C)(C)C(=O)NC(C)(C)C(=O)NCCC(=O)NC1(CN(C)C)CCC1` [Compound 6781, (2S)—N-[(1S)-1-[(1-{[(1S)-1-{[(1S)-1-({1-[(1-{[2-({1-[(dimethylamino)methyl]cyclobutyl}carbamoyl)ethyl]carbamoyl}-1-methylethyl)carbamoyl]-1-methylethyl}carbamoyl)-3-methylbutyl]carbamoyl}-3-methylbutyl]carbamoyl}-1-methylethyl)carbamoyl]-3-methylbutyl]-2-{[(2S)-1-(2-methyl-1,3-oxazole-4-carbonyl)pyrrolidin-2-yl]formamido}hexanamide] ({Oxazole4CO(2-Me)}-P[Nle]L[Aib]LL[Aib][Aib][βAla]-{NH(1-CH2NMe2-cBu)}), the IC50 in series [3] amounted to 6850 nM.

The values are drawn from US20260049101A1, “TOPICAL TREATMENT OF SKIN CANCER USING OLIGOPEPTIDES” (BACOBA AG, priority 2022, published 2026).
